Reference: article PMC10285648, “iTAG an optimized IMiD-induced degron for targeted protein degradation in human and murine cells” (iScience, 2023)

What was measured:
Flag-PDE6D G28N mutant = target: T1, Flag-PDE6D G28N mutant (Mus musculus, UniProt O55057, G28N); experiment: Degradation of WT or G28N mutant Flag-PDE6D in murine cells; format: cell-based; conditions: CT26, AT3 and 4434, 10uM, 16h
T1 construct: expressed in transfected cells; host or cells: CT26, AT3 and 4434 murine cells, transient
T1 sequence (Q8C7D2 whole entry partner): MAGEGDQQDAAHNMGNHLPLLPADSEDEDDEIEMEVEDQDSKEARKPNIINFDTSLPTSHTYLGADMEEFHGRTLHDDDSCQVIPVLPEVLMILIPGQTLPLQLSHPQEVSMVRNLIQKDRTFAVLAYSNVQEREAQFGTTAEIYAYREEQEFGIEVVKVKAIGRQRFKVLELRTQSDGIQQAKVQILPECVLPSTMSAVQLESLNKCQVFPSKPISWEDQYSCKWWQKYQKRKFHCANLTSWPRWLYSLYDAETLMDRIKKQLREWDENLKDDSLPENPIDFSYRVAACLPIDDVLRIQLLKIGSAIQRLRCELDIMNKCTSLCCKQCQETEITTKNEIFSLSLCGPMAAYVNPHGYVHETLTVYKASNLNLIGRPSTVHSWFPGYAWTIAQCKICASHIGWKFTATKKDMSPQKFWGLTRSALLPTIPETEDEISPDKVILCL
T1 sequence (Q3U1J4 2-1140 partner limits assumed): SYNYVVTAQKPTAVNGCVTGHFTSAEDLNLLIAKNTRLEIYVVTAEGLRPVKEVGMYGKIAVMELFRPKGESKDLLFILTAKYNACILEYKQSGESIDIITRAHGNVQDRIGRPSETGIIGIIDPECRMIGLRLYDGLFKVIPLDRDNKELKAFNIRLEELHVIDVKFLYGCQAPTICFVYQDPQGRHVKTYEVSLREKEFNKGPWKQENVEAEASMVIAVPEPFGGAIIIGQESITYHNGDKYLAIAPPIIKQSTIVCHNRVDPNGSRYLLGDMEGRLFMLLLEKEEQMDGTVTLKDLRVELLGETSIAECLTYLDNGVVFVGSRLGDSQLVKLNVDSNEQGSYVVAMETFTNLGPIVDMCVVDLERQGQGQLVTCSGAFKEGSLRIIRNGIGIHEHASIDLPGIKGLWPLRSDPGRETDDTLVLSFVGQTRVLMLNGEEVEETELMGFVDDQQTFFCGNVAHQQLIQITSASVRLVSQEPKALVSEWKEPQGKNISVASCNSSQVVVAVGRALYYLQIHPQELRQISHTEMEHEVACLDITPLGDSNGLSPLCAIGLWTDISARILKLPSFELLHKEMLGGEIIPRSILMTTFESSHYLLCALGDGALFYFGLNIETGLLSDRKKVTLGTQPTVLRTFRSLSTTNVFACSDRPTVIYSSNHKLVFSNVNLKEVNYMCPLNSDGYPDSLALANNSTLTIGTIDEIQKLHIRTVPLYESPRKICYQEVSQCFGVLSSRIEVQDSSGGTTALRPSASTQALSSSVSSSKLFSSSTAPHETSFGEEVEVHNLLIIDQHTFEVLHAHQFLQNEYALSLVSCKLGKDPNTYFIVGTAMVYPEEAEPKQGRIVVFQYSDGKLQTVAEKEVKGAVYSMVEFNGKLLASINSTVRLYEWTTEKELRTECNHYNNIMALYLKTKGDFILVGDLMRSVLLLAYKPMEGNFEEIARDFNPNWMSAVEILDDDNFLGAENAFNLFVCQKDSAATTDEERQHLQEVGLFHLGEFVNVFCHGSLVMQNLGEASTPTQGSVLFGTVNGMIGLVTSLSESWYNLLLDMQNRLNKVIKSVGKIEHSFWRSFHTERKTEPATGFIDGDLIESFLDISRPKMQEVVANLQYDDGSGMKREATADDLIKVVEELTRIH
T1 sequence (O55057 whole entry G28N): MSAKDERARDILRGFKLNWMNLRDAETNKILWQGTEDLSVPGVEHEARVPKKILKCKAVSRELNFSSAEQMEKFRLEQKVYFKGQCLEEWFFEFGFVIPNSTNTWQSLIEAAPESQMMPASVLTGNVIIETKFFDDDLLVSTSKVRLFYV
Method: (§1) Figure 6 FPFT2216 induces the degradation of PDE6D in murine cells (A) Proteomes of CT26 cells treated with 10uM of the indicated compounds for 24h and analyzed using quantitative proteomics. Data are plotted as Log2 fold change relative to DMSO versus Log10 of p value. (B) Proteome of CT26 CRBN KO cells treated with 10uM of FPFT2216 for 24h analyzed and plotted as in (A). (C) HEK293T, CT26, AT3 and 4434 cells treated with 10uM of FPFT2216 for 24h in presence of absence of MLN4924. Lysats were analyzed using western blotting. (D) Structural representation of PDE6D with the critical Glycine 28 highlighted in red. (E) CT26, AT3 and 4434 cells transiently expressing WT or G28N mutant Flag-PDE6D treated with 10uM of FPFT2216 for 16h. (F) Docking model for FPFT-2216 (in magenta) in the binding site of mouse CRBN (in orange). H-bond interactions are shown as cyan dashes. (G) Binding model for the ternary complex formed by mouse CRBN (in orange), mouse PDE6D (in cyan) and FPFT-2216 (in magenta), showing the Gly28 loop close to the molecular glue.
After validating PDE6D degradation, we progressed to identify the critical degron site on the protein. We hypothesized that PDE6D binding to CRBN would require a Gly loop motif and used known structural features of IMiD degrons to map this site in PDE6D (see STAR Methods for details). […]

CT26 cells = experiment: Quantitative multiplexed proteomics of CT26 cells treated with thalidomide derivatives; format: cell-based, mouse; conditions: 24h
Method: After showing that iTAG was active in mouse cells, we explored whether more potential degrons were active in the murine context. […]2216[50] and profiled the cellular proteomes using quantitative multiplexed proteomics. […] Data are plotted as Log2 fold change relative to DMSO versus Log10 of p value. (B) Proteome of CT26 CRBN KO cells treated with 10uM of FPFT2216 for 24h analyzed and plotted as in (A). (C) HEK293T, CT26, AT3 and 4434 cells treated with 10uM of FPFT2216 for 24h in presence of absence of MLN4924. […] were analyzed using western blotting. (D) Structural representation of PDE6D with the critical […] highlighted in red. (E) CT26, AT3 and 4434 cells transiently expressing WT or […] mutant Flag-PDE6D treated with 10uM of FPFT2216 for 16h. (F) Docking model for FPFT-2216 (in magenta) in the binding site of mouse CRBN (in orange). H-bond interactions are shown as cyan dashes. (G) Binding model for the ternary complex formed by mouse CRBN (in orange), mouse PDE6D (in cyan) and FPFT-2216 (in magenta), showing the […] loop close to the molecular glue. Samples for quantitative proteomics were prepared using the […] workflow.[60] Briefly, the cell pellets were lysed in a buffer containing 150 μL 0.1 M triethylammonium bicarbonate (TEAB), 1% sodium deoxycholate (SDC), 10% isopropanol, 50mM NaCl, 5 mM tris-2-carboxyethyl phosphine (TCEP), 10 mM iodoacetamide (IAA), universal nuclease, and supplemented with protease and phosphatase inhibitors. Samples were bath sonicated for 5 min, incubated at RT for 45 min and protein concentration was measured with the Bradford Protein Assay (Biorad) according to manufacturer instructions. Aliquots containing 30 μg of total protein were used for protein digestion. The resultant peptides were labeled with a tandem mass tag (TMTpro) multiplex reagent vial (Thermo Scientific) according to the manufacturer instructions. All the TMT-labelled samples were combined in equal amounts to a single tube. The TMT-peptide mixture was acidified with 1% formic acid and the precipitated SDC was removed by centrifugation. The sample was then dried with a centrifugal vacuum concentrator. LC-MS analysis was performed on the Dionex Ultimate 3000 UHPLC system coupled with the Orbitrap Lumos mass spectrometer (Thermo Scientific). Samples were analyzed with the EASY-Spray C18 capillary column (75 μm × 50 cm, 2 μm) at 50°C. […] MS3 quantification was obtained with higher-energy collisional dissociation (HCD) fragmentation of the top 5 most abundant CID fragments isolated with synchronous precursor selection (SPS). […] The SEQUEST-HT search engine was used to analyze the acquired mass spectra in Proteome Discoverer 2.4 (Thermo Scientific) for protein identification and quantification. […]

CK1α = experiment: Western blot validation of CK1α degradation; format: cell-based, human, mouse; conditions: HEK293T versus AT3, 4434, CT26, 10uM, 24h, western blotting
Method: as §1
(§2) Cells were lysed with SDS lysis buffer (2% SDS, 10% Glycerol, 50mM Tris pH 6.8) and boiled at 95°C for 30min. Protein concentration was measured using Pierce BCA Protein Assay Kit (ThermoFischer) following manufacturer’s recommendations. […]

PDE6D = target: T2, PDE6D (Mus musculus, UniProt O55057+Q8C7D2); experiment: Western blot validation of PDE6D degradation; format: cell-based; conditions: AT3, 4434 and CT26, 10uM, 24h, western blotting
T2 construct: endogenous in cells; host or cells: AT3, 4434, CT26 (mouse); HEK293T run as human control
T2 sequence (O55057 whole entry): as the sequence (O55057 whole entry G28N) above, with N28G counted along it
T2 sequence (Q8C7D2 whole entry): as the sequence (Q8C7D2 whole entry partner) above
T2 sequence (Q3U1J4 2-1140 partner limits assumed): as the sequence (Q3U1J4 2-1140 partner limits assumed) above
Method: as §1, §2

degradation of G28N mutant PDE6D (Flag-PDE6D G28N mutant): not degraded
degradation of PDE6D (PDE6D): induced the degradation of PDE6D
Structure (SMILES): COc1cscc1-c1cn(C2CCC(=O)NC2=O)nn1 (centres unmarked) [FPFT2216]
effect on cellular proteome (CT26 cells; CT26, 10uM): strong downregulation of PDE6D, Rab28 and to a much lesser extent CK1α
CRBN dependence of proteome effects (CT26 cells; CT26 CRBN KO cells, 10uM): CRBN dependent
degradation of CK1α (CK1α): only degraded in human cells
